Source: patent publication US6858640B2, “Tricyclic indole compounds having affinity for serotonin receptor” (Shionogi & Co., Ltd., priority 2000, dated 2005)
Where two headings read alike, the source gives them in different places.

Columns and labels:
[1] = target: T1, 5HT1A (Rattus norvegicus, UniProt P19327); assay: radioligand binding to serotonin receptor, cell membrane sample, Ki by Cheng-Prusoff
T1 construct: prepared from brain of rats or HEK293 cells, which expressed the receptor; from tissue; host or cells: rat brain membranes
T1 sequence (P19327 1-422): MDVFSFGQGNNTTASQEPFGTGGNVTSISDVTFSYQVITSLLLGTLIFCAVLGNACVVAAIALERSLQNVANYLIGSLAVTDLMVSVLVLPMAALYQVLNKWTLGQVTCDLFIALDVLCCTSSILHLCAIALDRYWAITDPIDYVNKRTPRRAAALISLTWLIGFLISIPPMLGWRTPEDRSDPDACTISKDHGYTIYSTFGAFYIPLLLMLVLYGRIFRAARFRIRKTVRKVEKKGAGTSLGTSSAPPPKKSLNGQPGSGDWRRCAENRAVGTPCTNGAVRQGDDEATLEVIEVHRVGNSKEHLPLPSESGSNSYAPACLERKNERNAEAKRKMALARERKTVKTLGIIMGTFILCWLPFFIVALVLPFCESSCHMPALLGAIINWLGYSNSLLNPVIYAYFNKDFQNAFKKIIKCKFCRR
Experimental: (§1) A mixture of radioactive ligands and some cardinal numbers of test compounds was incubated with a sample of cell membrane, which was prepared from brain of rats or HEK293 cells, which expressed the receptor, under the following conditions. Then, the sample was filtered by suction on a Whatman GF/C. Radioactivity on the filter was encountered by the use of a liquid scintillation counter. 50% Inhibitory concentration values (IC50 values) of each selective binding were calculated for test compounds and the Ki value was obtained by applying an equation of Cheng-Prusoff [Biochem. Pharmacol. 22 (1973) 3099-3108] Ki=IC50/(1+[L]/Kd).

[2] = target: 5HT7 (Homo sapiens, UniProt P34969); assay: as above
Experimental: as §1

[3] = target: T2, 5HT6 (Homo sapiens, UniProt P50406); assay: radioligand binding to serotonin receptor, cell membrane sample, Ki by Cheng-Prusoff
T2 construct: expressed in transfected cells; host or cells: HEK293
Experimental: as §1

[4] = rat hippocampus membranes, 1 nM [3H] 8-OH-DPAT, 25° C. 30 min, read-out: Ki value (nM) ±SE 5-HT1A
[5] = Human 5-HT7 (HEK293), 0.5 nM [3H] 5CT, 25° C. 120 min, read-out: Ki value (nM) ±SE 5-HT7

T2 sequence (P50406 whole entry, species assumed): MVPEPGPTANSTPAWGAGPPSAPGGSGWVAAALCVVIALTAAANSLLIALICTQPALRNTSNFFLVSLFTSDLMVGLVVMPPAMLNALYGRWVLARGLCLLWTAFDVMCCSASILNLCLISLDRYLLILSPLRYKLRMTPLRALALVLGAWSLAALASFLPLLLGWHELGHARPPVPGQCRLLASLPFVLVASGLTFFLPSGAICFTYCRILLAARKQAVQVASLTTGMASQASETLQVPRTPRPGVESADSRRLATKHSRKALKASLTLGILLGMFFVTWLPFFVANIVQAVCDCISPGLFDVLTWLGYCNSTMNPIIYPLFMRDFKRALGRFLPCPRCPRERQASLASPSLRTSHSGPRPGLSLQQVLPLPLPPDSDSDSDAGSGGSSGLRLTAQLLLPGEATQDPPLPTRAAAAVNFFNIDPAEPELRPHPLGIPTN
Sequence of 5HT7 (P34969 whole entry, species assumed): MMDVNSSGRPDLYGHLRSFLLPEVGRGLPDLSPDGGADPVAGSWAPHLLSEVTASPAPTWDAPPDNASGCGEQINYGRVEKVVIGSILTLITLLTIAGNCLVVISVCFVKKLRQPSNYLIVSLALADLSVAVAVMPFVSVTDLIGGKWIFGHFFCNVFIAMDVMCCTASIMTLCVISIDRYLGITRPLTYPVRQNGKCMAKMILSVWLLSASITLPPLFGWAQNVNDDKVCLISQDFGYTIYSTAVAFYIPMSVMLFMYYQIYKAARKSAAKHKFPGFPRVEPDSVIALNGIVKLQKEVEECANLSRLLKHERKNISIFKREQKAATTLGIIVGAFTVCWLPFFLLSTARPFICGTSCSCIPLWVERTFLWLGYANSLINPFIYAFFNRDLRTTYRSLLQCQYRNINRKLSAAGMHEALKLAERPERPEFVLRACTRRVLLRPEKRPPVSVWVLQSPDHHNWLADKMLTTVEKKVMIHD

## CCCNC1COc2cccc3[nH]cc(c23)C1 (stereo not drawn) [Compound 19-3]
[1]
  Ki: 5.7 nM
[2]
  Ki: 46 nM
other
  melting point: 137 to 139 °C

## CNC1COc2c(Br)ccc3[nH]cc(c23)C1 (stereo not drawn) [Compound 19-15]
[1]
  Ki: 7.7 nM
[3]
  Ki: 4.6 nM
[2]
  Ki: 16 nM

## CN(C)C1COc2c(Br)ccc3[nH]cc(c23)C1 (stereo not drawn) [Compound 19-16]
[1]
  Ki: 58 nM
[3]
  Ki: 62 nM
[2]
  Ki: 86 nM
other
  melting point: 142 to 143 °C

## CCN(CC)C1COc2cccc3c2c(cn3S(=O)(=O)c2ccccc2)C1 (stereo not drawn) [Compound 36-3]
[1]; [4]
  Ki: 58 nM
[3]
  Ki: 4.2 nM
other
  melting point: 106 to 108 °C

## CN(C)C1COc2c(-c3ccccc3)ccc3[nH]cc(c23)C1 (stereo not drawn) [Compound 38, Dimethyl-(5-phenyl-2,7,8,9-tetrahydro-6-oxa-2-azabenzo[cd]azulen-8-yl)amine]
[1]; [4]
  Ki: 83 nM
[2]; [5]
  Ki: 22 nM
other
  melting point: 168 to 170 °C

## COC(=O)/C=C/c1ccc2[nH]cc3c2c1OCC(N(C)C)C3 (stereo not drawn) [Compound 39, (E)-3-(8-Dimethylamino-2,7,8,9-tetrahydro-6-oxa-2-azabenzo[cd]azulen-5-yl)acrylic acid methyl ester]
[1]; [4]
  Ki: 27 nM
[2]; [5]
  Ki: 73 nM

## C=Cc1ccc2[nH]cc3c2c1OCC(N(C)C)C3 (stereo not drawn) [Compound 40, Dimethyl-(5-vinyl-2,7,8,9-tetrahydro-6-oxa-2-azabenzo[cd]azulen-8-yl)amine]
[1]; [4]
  Ki: 15 nM
[3]
  Ki: 32 nM
[2]; [5]
  Ki: 74 nM
